Experimental data published in ChEMBL document CHEMBL1201862, “PubChem BioAssay data set” (2004).
Calls of active or inactive are those of the source.

Key:
[1] = target: T1, Hexokinase HKDC1 (Homo sapiens, UniProt Q2TB90); test: HKDC1 hexokinase inhibitors, dose response, biochemical, W721R variant (AID 504729); type: functional
T1 sequence (Q2TB90 whole entry): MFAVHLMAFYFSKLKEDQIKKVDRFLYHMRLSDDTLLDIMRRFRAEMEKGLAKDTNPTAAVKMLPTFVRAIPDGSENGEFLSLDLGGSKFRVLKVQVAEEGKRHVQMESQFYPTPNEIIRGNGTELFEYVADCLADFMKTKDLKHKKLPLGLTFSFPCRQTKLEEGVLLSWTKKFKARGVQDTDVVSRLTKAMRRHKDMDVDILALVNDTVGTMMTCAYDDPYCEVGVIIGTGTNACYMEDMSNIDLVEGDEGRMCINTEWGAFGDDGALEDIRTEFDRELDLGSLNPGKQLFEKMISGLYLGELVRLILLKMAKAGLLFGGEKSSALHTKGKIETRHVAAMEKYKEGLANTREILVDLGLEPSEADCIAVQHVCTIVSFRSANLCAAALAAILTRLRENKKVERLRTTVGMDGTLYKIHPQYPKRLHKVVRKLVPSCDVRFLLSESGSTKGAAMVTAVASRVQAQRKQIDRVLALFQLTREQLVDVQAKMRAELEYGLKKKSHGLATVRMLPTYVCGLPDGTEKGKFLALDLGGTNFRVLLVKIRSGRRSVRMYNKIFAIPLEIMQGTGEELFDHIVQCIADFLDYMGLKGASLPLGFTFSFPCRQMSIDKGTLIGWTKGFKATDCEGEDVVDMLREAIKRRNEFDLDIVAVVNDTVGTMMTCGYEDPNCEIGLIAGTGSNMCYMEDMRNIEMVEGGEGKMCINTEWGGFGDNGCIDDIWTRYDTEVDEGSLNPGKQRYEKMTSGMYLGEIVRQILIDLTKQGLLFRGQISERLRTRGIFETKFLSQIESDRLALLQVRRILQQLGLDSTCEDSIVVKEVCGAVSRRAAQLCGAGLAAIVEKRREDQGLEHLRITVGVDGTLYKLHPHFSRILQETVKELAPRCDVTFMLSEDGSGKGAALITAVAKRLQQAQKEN

[2] = target: T2, Bcl-2-like protein 10 (Homo sapiens, UniProt Q9HD36); test: displacers of TR3 peptide from Bcl-B, primary screen, selectivity assay for Bfl-1 inhibitor project, biochemical, fluorescence polarization, FITC-TR3 peptide (AID 748);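 note: fluorescence polarization from a fluorescein-labelled TR3 peptide binding purified Bcl-B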
T2 sequence (Q9HD36 whole entry): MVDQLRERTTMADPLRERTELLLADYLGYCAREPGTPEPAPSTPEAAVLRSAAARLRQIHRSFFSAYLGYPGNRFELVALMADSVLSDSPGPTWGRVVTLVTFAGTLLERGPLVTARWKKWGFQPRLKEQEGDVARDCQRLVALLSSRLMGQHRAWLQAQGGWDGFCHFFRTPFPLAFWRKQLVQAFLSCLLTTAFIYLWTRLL

[3] = cells; type: functional, cell-based
[4] = target: Induced myeloid leukemia cell differentiation protein Mcl-1 (Homo sapiens, UniProt Q07820); type: functional
[5] = cells; type: functional, cell-based; remark: listed apart in the source
[6] = microbe, parasite or virus in culture; type: functional; conditions: Mycobacterium tuberculosis
[7] = cells; type: functional
[8] = HepG2 cell cytotoxicity, dose response, cytotoxicity control for non-replicating M. tuberculosis project (AID 489018); type: functional; conditions: Mycobacterium tuberculosis
[9] = test system: Vero; test: cells; type: functional; conditions: Chlorocebus sabaeus
[10] = THP-1 cell cytotoxicity, dose response, cytotoxicity control for non-replicating M. tuberculosis project (AID 489025); type: functional
[11] = Vero E6 cell cytotoxicity, dose response, cytotoxicity control for non-replicating M. tuberculosis project, secondary assay (AID 492998); type: functional, VeroE6; conditions: Vero C1008

Induced myeloid leukemia cell differentiation protein Mcl-1, sequence (Q07820 whole entry): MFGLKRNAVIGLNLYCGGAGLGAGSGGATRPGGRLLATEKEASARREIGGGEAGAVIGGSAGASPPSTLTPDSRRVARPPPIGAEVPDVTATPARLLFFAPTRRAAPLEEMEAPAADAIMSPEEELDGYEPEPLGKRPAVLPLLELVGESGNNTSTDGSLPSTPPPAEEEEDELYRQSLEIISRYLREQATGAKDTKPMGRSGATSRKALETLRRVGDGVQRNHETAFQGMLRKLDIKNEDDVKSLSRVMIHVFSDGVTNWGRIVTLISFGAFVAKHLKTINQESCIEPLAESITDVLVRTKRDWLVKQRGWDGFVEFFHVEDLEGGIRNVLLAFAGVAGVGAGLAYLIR

Q: For `Cc1cccc(N2C(=O)NC(=O)/C(=C\c3ccc4c(c3)CCCN4Cc3ccccc3)C2=O)c1`, which IC50 [1] is on record?
A: 27.6 µM (inactive)

Q: For `Cc1ccc(N=Nc2ccc(O)c(/C=N\NC(=O)c3ccc(N)cc3)c2)cc1C`, which IC50 [2] is on record?
A: > 100 µM (inactive)

Q: And the EC50 [3]?
A: > 350 µM (not active)

Q: What about the IC50 [4] of the same molecule?
A: 2.62 µM (active)

Q: What about the EC50 [5] of the same molecule?
A: > 350 µM (not active)

Q: What does the source list for `O=C(c1ccc(Cl)cc1)N1N=C(c2ccccn2)CC1(O)C(F)(F)F` (stereo unspecified)?
A: CC50 [6]: 32.6 µM (active); IC50 [7]: 3.69 µM (active); CC50 [8]: 15.2 µM (active); CC50 [9]: 20.4 µM (active); CC50 [10]: 11.6 µM (active); CC50 [11]: 13.3 µM (active)
